The values that follow come from the NIST ThermoML archive (doi:10.1021/je600578u).

Series [1] is described as follows: refractive index (Na D-line) (dimensionless). The note with it: 298.15 K; 101.33 kPa; Liquid; Standard Abbe refractometry.
For series [2] the following is noted: 298.15 K; 101.33 kPa; Liquid.

± gives the expanded uncertainty stated by the source.

For `CCO` [ethanol], the refractive index in series [1] is on record as 1.35928 ± 0.00052. Moreover, in series [2], the mass density came out at 785.27 ± 0.98 kg/m3.
Turning to `c1ccccc1` [benzene], in series [1], the refractive index turned out to be 1.49764 ± 0.00054. In addition, the mass density in series [2] turned out to be 873.57 ± 0.96 kg/m3.
